Assay results: ChEMBL document CHEMBL5038569, “Targeting RECQL5 Functions, by a Small Molecule, Selectively Kills Breast Cancer in Vitro and in Vivo” (J Med Chem, 2021)
Active and inactive are the calls of the source. The rule behind the calls is not given here.

Experiments:
[1] = Cytotoxicity against human MCF-10A cells expressing RECQL5 assessed as cell growth inhibition measured after 72 hrs by MTT assay; format: toxicity, cell-based
MCF7 [2] = assay: Cytotoxicity against human MCF7 cells with shRNA-mediated RECQL5 depletion assessed as reduction in cell viability at 6 to 25 uM measured after 8 to 10 days by clonogenic survival assay; format: functional, cell-based; conditions: dose 6-25 µM, time 8-10 day
[3] = Toxicity in nude mouse xenografted with human MCF7 cells assessed as morphological changes in liver at 50 mg/kg, po administered via oral gavage and measured after 30 days; format: organism-based; conditions: in vivo, 720 h, time 30 day
[4] = Toxicity in […] mouse assessed as fold change in alkaline phosphatase level at 100 mg/kg, po administered as single dose via gavage measured after 30 days relative to control; format: organism-based; conditions: in vivo, 720 h, time 30 day
MCF7 [5] = assay: Induction of DNA damage in human MCF7 cells expressing wild type RECQL5 assessed as double strand breaks by measuring increase in phosphorylation of ATR at S428 residue at 20 uM measured up to 24 hrs by Western blot analysis; format: functional, cell-based; conditions: time hrs <=24
MCF7 [6] = assay: Effect on homologous recombinant repair in RECQL5 knock out human MCF7 cells assessed as accumulation of NBS1 protein on chromatin at 20 uM incubated for 4 to 24 hrs by Western blot analysis; format: functional, cell-based; conditions: time 4-24 hrs
[7] = Toxicity in […] mouse assessed as fold change in creatinine level at 100 mg/kg, po administered as single dose via gavage measured after 30 days relative to control; format: organism-based; conditions: in vivo, 720 h, time 30 day
MCF7 [8] = assay: Reversal of RECQL5 knock out resistance phenotype in human MCF7 cells expressing RECQL5-RFP assessed as reduction in cell viability at 6 to 25 uM measured after 72 hrs by MTT assay; format: functional, cell-based; conditions: dose 6-25 µM
MCF7 [9] = assay: Induction of apoptosis in RECQL5 knock out human MCF7 cells assessed as increase in sub-G1 cell population measured after 72 hrs by propidium iodide/RNase A staining based flow cytometric analysis; format: functional; conditions: dose 2.5-20 µM
MCF7 [10] = assay: Stabilization of RECQL5-RAD51 complex in RECQL5 knock out human MCF7 cells expressing wild type RECQL5-FLAG assessed as increase in RAD51-RECQL5-FLAG pull down at 20 uM measured after 8 hrs by coimmunoprecipitation assay; format: cell-based
MCF7 [11] = assay: Effect on NHEJ-mediated double strand break repair in RECQL5 knock out human MCF7 cells assessed as accumulation of KU80 on chromatin at 20 uM measured up to 24 hrs by Western blot analysis; format: cell-based; conditions: time hrs <=24
MCF7 [12] = assay: Effect on homologous recombinant repair in human MCF7 cells expressing wild type RECQL5 assessed as accumulation of NBS1 protein on chromatin at 20 uM incubated for 4 to 24 hrs by Western blot analysis; format: functional, cell-based; conditions: time 4-24 hrs, TDE = time-dependent effect
MCF7 [13] = assay: Cytotoxicity against human MCF7 cells expressing RECQL5 assessed as cell growth inhibition measured after 72 hrs by MTT assay; format: functional
MCF7 [14] = assay: Induction of DNA damage in RECQL5 knock out human MCF7 cells assessed as double strand breaks by measuring increase in gamma-H2AX foci formation incubated for 24 hrs by immunofluorescence microscopic analysis; format: functional, cell-based
T47D [15] = assay: Induction of DNA damage in human T47D cells expressing wild type RECQL5 assessed as double strand breaks by measuring increase in gamma-H2AX foci formation incubated for 24 hrs by immunofluorescence microscopic analysis; format: functional, cell-based; conditions: dose 0-20 µM
MCF7 [16] = assay: Effect on homologous recombinant repair in RECQL5 knock out human MCF7 cells assessed as accumulation of MRE11 protein on chromatin at 20 uM incubated for 4 to 24 hrs by Western blot analysis; format: functional, cell-based; conditions: time 4-24 hrs
[17] = Toxicity in nude mouse xenografted with human MCF7 cells assessed as morphological changes in lungs at 50 mg/kg, po administered via oral gavage and measured after 30 days; format: organism-based; conditions: in vivo, 720 h, time 30 day
T47D [18] = assay: Cytotoxicity against ER/PR-positive HER2-negative CRISPR/Cas9 engineered human T47D cells expressing wild type RECQL5 and p53 mutant assessed as reduction in colony formation measured after 8 to 10 days by clonogenic survival assay; format: functional, cell-based; conditions: time 8-10 day
MCF7 [19] = assay: Cytotoxicity against human MCF7 cells expressing wild type RECQL5 assessed as inhibition of colony formation measured after 8 to 10 days by clonogenic survival assay; format: functional, cell-based
MCF7 [20] = assay: Effect on homologous recombinant repair in RECQL5 knock out human MCF7 cells assessed as accumulation of RAD50 protein on chromatin at 20 uM incubated for 4 to 24 hrs by Western blot analysis; format: functional, cell-based; conditions: time 4-24 hrs
MCF7 [21] = assay: Induction of DNA damage in human MCF7 cells expressing wild type RECQL5 assessed as double strand breaks by measuring increase in phosphorylation of RPA2 at 20 uM measured after 4 to 24 hrs by Western blot analysis; format: functional, cell-based; conditions: time 4-24 hrs, TDE = time-dependent effect
[22] = Toxicity in […] mouse assessed as fold change in SGPT level at 100 mg/kg, po administered as single dose via gavage measured after 30 days relative to control; format: organism-based; conditions: in vivo, 720 h, time 30 day
MCF7 [23] = assay: Inhibition of homologous recombinant repair in human MCF7 cells expressing RECQL5 wildtype/ SceGFP/iGFP mutants assessed as I-SceI induced generation of resected double stand breaks by measuring GFP-expressing cells at 10 uM measured after 48 hrs by flow cytometry analysis; format: functional, cell-based
MCF7 [24] = assay: Induction of mitotic catastrophe phenotype in human cisplatin-resistant MCF7 cells assessed as nuclear bridge formation at 20 uM pretreated with cisplatin for 8 hrs followed by compound addition and measured after 24 hrs by immunofluorescence microscopic analysis; format: functional, cell-based
MCF7 [25] = assay: Induction of DNA damage in human MCF7 cells expressing wild type RECQL5 assessed as double strand breaks by measuring increase in phosphorylation of CHK2 at T68 residue at 20 uM measured up to 24 hrs by Western blot analysis; format: functional, cell-based; conditions: time hrs <=24
MCF7 [26] = assay: Stabilization of RECQL5-RAD51 complex in human MCF7 cells expressing wild type RECQL5 assessed as increase in accumulation of nucleus-bound RECQL5 and RAD51 at 20 uM measured after 4 to 24 hrs by Western blot analysis; format: cell-based; conditions: time 4-24 hrs
[27] = Drug concentration in nude mouse serum at 50 mg/kg, po administered alternative days via gavage and measured upto 4 hrs by HPLC analysis; format: ADME, organism-based; conditions: read-out: Drug uptake
[28] = Chronic toxicity in […] mouse assessed as change in stool texture at 100 mg/kg, po administered as single dose via gavage measured for 30 days; format: organism-based; conditions: in vivo, 720 h, time 30 day
MCF7 [29] = assay: Induction of DNA damage in RECQL5 knock out human MCF7 cells assessed as double strand breaks by measuring increase in phosphorylation of CHK1 at S345 residue at 20 uM measured up to 24 hrs by Western blot analysis; format: functional, cell-based; conditions: time hrs <=24
MCF7 [30] = assay: Induction of DNA damage in RECQL5 knock out human MCF7 cells assessed as double strand breaks by measuring increase in phosphorylation of CHK2 at T68 residue at 20 uM measured up to 24 hrs by Western blot analysis; format: functional, cell-based; conditions: time hrs <=24
[31] = Toxicity in nude mouse xenografted with human MCF7 cells assessed as morphological changes in kidney at 50 mg/kg, po administered via oral gavage and measured after 30 days; format: organism-based; conditions: in vivo, 720 h, time 30 day
MCF7 [32] = assay: Cytotoxicity against RECQL5 knock out human MCF7 cells expressing wild type RECQL5-FLAG assessed as reduction in colony formation at 10 uM measured after 8 to 10 days by clonogenic survival assay; format: functional, cell-based; conditions: time 8-10 day

Question: With `O=C(Nc1cc(C(F)(F)F)cc(C(F)(F)F)c1)N[C@@H](c1ccccc1)c1nnc(SCc2ccccc2)o1` as the molecule, how does the IC20 at 72 h [1] read?
Answer: 33.4 µM

Question: What about the Activity (MCF7 [2]) of the same molecule?
Answer: inactive

Question: What about the Activity [3] of the same molecule?
Answer: Non-Toxic

Question: And the “fold change (FC)” value [4]?
Answer: 0.97

Question: What about the Activity (MCF7 [5]) of the same molecule?
Answer: Active

Question: What about the Activity (MCF7 [6]) of the same molecule?
Answer: inactive

Question: And the “fold change (FC)” value [7]?
Answer: 1.05

Question: And the Activity (MCF7 [8])?
Answer: Active

Question: What about the Activity (MCF7 [9]) of the same molecule?
Answer: Dose-Dependent Effect

Question: What about the Activity (MCF7 [10]) of the same molecule?
Answer: Active

Question: What about the Activity (MCF7 [11]) of the same molecule?
Answer: inactive

Question: And the Activity (MCF7 [12])?
Answer: Tde

Question: And the IC20 (MCF7 [13])?
Answer: 8.4 µM

Question: What about the Activity (MCF7 [14]) of the same molecule?
Answer: inactive

Question: And the Activity (T47D [15])?
Answer: Dose-Dependent Effect

Question: What about the Activity (MCF7 [16]) of the same molecule?
Answer: inactive

Question: And the Activity [17]?
Answer: Non-Toxic

Question: And the Activity (T47D [18])?
Answer: Active

Question: What about the IC50 (MCF7 [19]) of the same molecule?
Answer: 4.8 µM

Question: What about the Activity (MCF7 [20]) of the same molecule?
Answer: inactive

Question: What about the Activity (MCF7 [21]) of the same molecule?
Answer: Tde

Question: What about the “fold change (FC)” value [22] of the same molecule?
Answer: 0.92

Question: What about the inhibition (MCF7 [23]) of the same molecule?
Answer: Active

Question: And the Activity (MCF7 [24])?
Answer: Active

Question: What about the Activity (MCF7 [25]) of the same molecule?
Answer: Active

Question: And the Activity (MCF7 [26])?
Answer: inactive

Question: What about the concentration at 4 h [27] of the same molecule?
Answer: 14.8 µM

Question: And the Activity [28]?
Answer: Non-Toxic

Question: And the Activity (MCF7 [29])?
Answer: inactive

Question: And the Activity (MCF7 [30])?
Answer: inactive

Question: And the Activity [31]?
Answer: Non-Toxic

Question: And the Activity (MCF7 [32])?
Answer: Active
